Results from patent publication US10285405B2, “Oil carrying particulate matter and uses thereof” (Nobactra Israel Ltd., priority 2013, dated 2019).

Legend:
[1] = test system: pepper plants; assay: Spraying the emulsions on pepper plants for phytotoxicity symptoms; assay type: in vivo
[2] = test system: The tested bacteria; assay: Disc diffusion method, positive control (bacterium not specified); assay type: cell-based; settings: positive control 3% H2O2 solution, 27° C., 48 hours
Description: Bacteria were grown in nutrient broth test tubes at 27° C. for 24 hrs. The paper discs were sterilized by autoclave in preparation for the disc diffusion method. Each bacteria ([…]), was placed on Nutrient agar (NA) plates and allowed to dry for 3-5 minutes. The paper discs were saturated in 100% concentration of the oregano essential oil (20 ul), and then placed onto each NA plate freshly coated with bacteria. The positive control used was 3% H2O2 solution and the negative control was DI water. The plates were incubated at 27° C. for 48 hours. The zone of inhibition was measured by standard ruler.

[3] = plants sprayed with emulsion of 25% oregano oil with 5% sesame oil made with the emulsifier, data not shown

Molecule | Phytotoxicity on pepper plants [1, 3] | further results
CCCCCCCC/C=C\CCCCCCCC(=O)OCCOCC(OCCO)C1OCC(OCCO)C1OCCO (centres unmarked) [Tween 80] | phytotoxicity | –
CCCCCCCCCCCCCCCCCC(=O)[O-].[Na+] [sodium stearate, Sodium Stearate] | very vital | –
Triton X100 | phytotoxicity | –
CCCCCCCCCCCCOS(=O)(=O)[O-].[Na+] [SDS] | – | Phytotoxicity on pepper plants ([1]; in vivo): phytotoxicity
OO [P. control, H2O2] | – | Inhibition zone (mm) [2]: 8 mm
